Entries after “also recorded” stand apart in the source; their conditions may differ. Where a name gives a salt, the structure may show the parent alone. Read-outs that look alike come from different tables or passages of the source.
Legend:
[1] = test system: patients with cerebral vasospasm; settings: human, in vivo
[2] = test system: patients with cerebral vasospasm; experiment: Vasoactive medications tried on Applicant's patients with vasospasm, monitored by Transcranial Doppler (TCD), exam and symptoms; settings: for effect on vessels seen on TCD / ultrasound (vasoconstriction or dilatation) / headache / neurological exam and other neurological abnormalities: human, in vivo; for effectiveness in treating the vasospasm: qualitative rating in Applicant's patient population (tend to be the most severe cases); for EEG abnormalities and neurocognitive or neurological complaints / change of the vasospasm: anti-epileptic drugs in therapeutic doses
[3] = test system: patient with migraine, schizophrenic reaction and vasospasm; experiment: Case study: psychosis caused by cerebral ischemia, EEG and TCD; type: in vivo, human patient; settings: single patient; for response of psychosis (hallucinations and delusions): in hospital
[4] = IM, lower doses than 90 to 120 mg

What does the source list for COC(=O)C1=C(C)NC(C)=C(C(=O)OC(C)C)C1c1cccc2nonc12 (centres unmarked) [Dynacirc, isradipine]?
transient supersensitivity (transient worsening of the vasospasm) on early administration [1]: did not occur; effect on vessels seen on TCD / ultrasound (vasoconstriction or dilatation) [2]: resulted in vascular dilatation; headache [2]: alleviated or treated the headache; neurological exam and other neurological abnormalities [2]: clinical and neurological exam improvement; effectiveness in treating the vasospasm [2]: extremely effective

Which “effectiveness in treating the vasospasm” value [2] does the source give for C[C@H](CS)C(=O)N1CCC[C@H]1C(=O)O [Capoten, Captopril] here?
The value was “close second tier medications”.

O=C(CCCN1CCC(O)(c2ccc(Cl)cc2)CC1)c1ccc(F)cc1 [Haldol, Haloperidol] was tested. Which “response of psychosis (hallucinations and delusions)” value [3] did it give?
Its value is “did not respond; also recorded: poor response”.

CSc1ccc2c(c1)N(CCC1CCCCN1C)c1ccccc1S2 (centres unmarked) [Mellaril, Thioridazine] was tested. Which “effectiveness in treating the vasospasm” value [2] did it give?
Its value is “has not been effective; also recorded: no significant effects”.

O=C(O)C(O)C(O)C(=O)O.Oc1ccc2c(c1)[C@@]13CCCC[C@@]1(O)[C@@H](C2)N(CC1CCC1)CC3 [Stadol, butorphanol tartrate] was tested. Which “effect on vessels seen on TCD / ultrasound (vasoconstriction or dilatation)” value [2] did it give?
The value was “caused vasoconstriction”.

What about the headache [2] of the same compound?
The headache was “improved their headache”.

What about the “neurological exam and other neurological abnormalities” value [2] of the same compound?
The value was “worsened the patient's neurological exam and mentation”.

NCCCC[C@H](N[C@@H](CCc1ccccc1)C(=O)O)C(=O)N1CCC[C@H]1C(=O)O [Zestril, Lisinopril] was tested. Which “effectiveness in treating the vasospasm” value [2] did it give?
The value was “extremely effective”.

For COc1ccc([C@@H]2Sc3ccccc3N(CCN(C)C)C(=O)[C@@H]2OC(C)=O)cc1 [Dilacor, Diltiazem], which “effectiveness in treating the vasospasm” value [2] is on record?
Its value is “less effective”.

Which “effectiveness in treating the vasospasm” value [2] does the source give for COc1cc2nc(N3CCN(C(=O)C4CCCO4)CC3)nc(N)c2cc1OC (centres unmarked) [Hytrin, Terazosin] here?
The value was “less successful results; also recorded: has not been found to be effective”.

What does the source list for CCCC(CCC)C(=O)[O-].[Na+] [Depakote, Sodium Valproate]?
EEG and flow abnormalities on Transcranial Doppler [3]: without change in their EEG and continued flow abnormalities; EEG abnormalities and neurocognitive or neurological complaints [2]: improved in some patients; change of the vasospasm [2]: none of the medications in therapeutic doses have changed the vasospasm

What does the source list for CNS(=O)(=O)Cc1ccc2[nH]cc(CCN(C)C)c2c1 [Imitrex, sumatriptan succinate]?
effect on vessels seen on TCD / ultrasound (vasoconstriction or dilatation) [2]: caused vasoconstriction; headache [2]: improved their headache; neurological exam and other neurological abnormalities [2]: worsened the patient's neurological exam and mentation

Which “EEG abnormalities and neurocognitive or neurological complaints” value [2] does the source give for NC(=O)N1c2ccccc2C=Cc2ccccc21 [Tegretol, Carbamazepine] here?
The value was “improved in some patients”.

And the “change of the vasospasm” value [2]?
Its value is “none of the medications in therapeutic doses have changed the vasospasm”.

CC(COc1ccccc1)N(CCCl)Cc1ccccc1 (centres unmarked) [Dibenzyline, Phenoxybenzamine] was tested. Which “effectiveness in treating the vasospasm” value [2] did it give?
The value was “relatively mild”.

With CCOC(=O)[C@H](CCc1ccccc1)N[C@@H](C)C(=O)N1Cc2ccccc2C[C@H]1C(=O)O [Accupril, Quinapril] as the compound, how does the “effectiveness in treating the vasospasm” value [2] read?
The value was “consistently been the most effective”.

What about the “weaning from oral medications” value ([2]; with concomitant low dose Nitroglycerin, 1/10th inch once to several times a day) of the same compound?
The value was “most patients may be eventually weaned from the use of oral medications”.

What does the source list for CC(C)NCC(O)COc1cccc2ccccc12 (centres unmarked) [Inderal, Propranolol]?
EEG and flow abnormalities on Transcranial Doppler [3]: without change in their EEG and continued flow abnormalities; smoothing out the sympathetic nervous system excitability and variability ([2]; patients being tapered off vasodilators): most effective; also recorded: extremely effective; effectiveness in treating the vasospasm [2]: None of these have been significantly effective at vasodilation

CNCCC(Oc1ccc(C(F)(F)F)cc1)c1ccccc1 (centres unmarked) [Prozac] was tested. Which “effectiveness in treating the vasospasm” value [2] did it give?
The value was “helpful”.

For CN(C)CCCN1c2ccccc2Sc2ccc(Cl)cc21 [Thorazine, Chlorpromazine], which “effectiveness in treating the vasospasm” value [2] is on record?
The value was “moderately effected; also recorded: moderately effective”.

For Clc1cccc(Cl)c1N=C1NCCN1 [Clonidine], which “transient supersensitivity (transient worsening of the vasospasm) on early administration” value [1] is on record?
Its value is “did not occur”.

And the “effect on vessels seen on TCD / ultrasound (vasoconstriction or dilatation)” value [2]?
The value was “resulted in vascular dilatation”.

And the headache [2]?
The headache was “alleviated or treated the headache”.

What about the “neurological exam and other neurological abnormalities” value [2] of the same compound?
Its value is “clinical and neurological exam improvement”.

And the “treating migraine induced depression due to chronic vasospasm” value ([2]; patients who could not tolerate or respond to other vasodilators)?
Its value is “useful in these depressed patients”.

And the “effectiveness in treating the vasospasm” value [2]?
The value was “extremely effective”.

With COc1cc2nc(N3CCN(C(=O)C4COc5ccccc5O4)CC3)nc(N)c2cc1OC (centres unmarked) [Cardura, Doxazosin] as the compound, how does the “effectiveness in treating the vasospasm” value [2] read?
The value was “relatively mild medication”.

For COCCc1ccc(OCC(O)CNC(C)C)cc1 (centres unmarked) [Lopressor, Metoprolol Tartrate], which “effectiveness in treating the vasospasm” value [2] is on record?
Its value is “None of these have been significantly effective at vasodilation”.

Which “effect on vessels seen on TCD / ultrasound (vasoconstriction or dilatation)” value [2] does the source give for CN1C[C@H](C(=O)N[C@]2(C)O[C@@]3(O)[C@@H]4CCCN4C(=O)[C@H](Cc4ccccc4)N3C2=O)C[C@@H]2c3cccc4[nH]cc(c34)C[C@H]21 [DHE] here?
Its value is “caused vasoconstriction”.

And the headache [2]?
The headache was “improved their headache”.

And the “neurological exam and other neurological abnormalities” value [2]?
Its value is “worsened the patient's neurological exam and mentation”.

Which results are given for CN1CCN(CC/C=C2/c3ccccc3Sc3ccc(S(=O)(=O)N(C)C)cc32)CC1 [Navane, Thiothixene]?
response of psychosis (hallucinations and delusions) [3]: good response; improvement in the Transcranial Doppler Artery Ultrasound ([2]; patients with TCD mean flow velocities greater than 1.3, within a half hour of 2 mg in 4 ounces of water orally, generally expected): 50%; blood pressure changes ([2]; patients with vasospasm): without causing peripheral blood pressure changes; effectiveness in treating the vasospasm [2]: extremely effective central vasodilator; effectiveness in treating the vasospasm ([2]; listed as Navanne): most effective

O=C1NC(=O)C(c2ccccc2)(c2ccccc2)N1 [Dilantin, Phenytoin] was tested. Which “EEG abnormalities and neurocognitive or neurological complaints” value [2] did it give?
The value was “improved in some patients”.

What about the “change of the vasospasm” value [2] of the same compound?
The value was “none of the medications in therapeutic doses have changed the vasospasm”.

How did the “effectiveness in treating the vasospasm” value [2] turn out when NCCCC[C@H](N[C@@H](CCc1ccccc1)C(=O)O)C(=O)N1CCC[C@H]1C(=O)O [Prinivil, Lisinopril] was run?
Its value is “close second tier medications”.

CCOC(=O)[C@H](CCc1ccccc1)N[C@H]1CCc2ccccc2N(CC(=O)O)C1=O [Lotensin, Benazepril] was tested. Which “effectiveness in treating the vasospasm” value [2] did it give?
Its value is “close second tier medications”.

Which “effectiveness in treating the vasospasm” value [2] does the source give for COC(=O)[C@H]1[C@H]2C[C@@H]3c4[nH]c5cc(OC)ccc5c4CCN3C[C@H]2C[C@@H](OC(=O)c2cc(OC)c(OC)c(OC)c2)[C@@H]1OC [Reserpine] here?
The value was “very effective; also recorded: extremely effective”.

Cc1nc2n(c(=O)c1CCN1CCC(c3noc4cc(F)ccc34)CC1)CCCC2 [Respiradol, Respiradone] was tested. Which tolerability [1] did it give?
Its tolerability is “less well-tolerated in comparison with Thorazine and Navane”.

And the “patient's symptoms” value ([2]; antipsychotic agents in patients with vasospasm)?
The value was “generally improved the patient's symptoms”.

And the “effect on vessels seen on TCD / ultrasound (vasoconstriction or dilatation)” value [2]?
Its value is “no significant improvement on ultrasound”.

O=C(c1ccccc1)c1ccc2n1CCC2C(=O)O (centres unmarked) [Toradol, ketorolac tromethamine] was tested. Which “effect on Transcranial Doppler ultrasound” value ([2]; 90 to 120 mg IM doses) did it give?
The value was “causes acute vasodilation on ultrasound in most patients”.

What about the “reversal of reactive vasoconstriction (Nitric Oxide sensitivity reaction) after first nitrate dose” value ([2]; IM) of the same compound?
The value was “can be immediately reversed”.

What about the effectiveness ([2]; IM, doses lower than 90-120 mg) of the same compound?
The effectiveness was “not so effective”.

And the “effect on Transcranial Doppler ultrasound” value [2, 4]?
The value was “generally do not show significant changes”.

And the patient-reported symptoms [2, 4]?
Its patient-reported symptoms is “symptomatic improvement”.

What about the “improvement on Transcranial Doppler Artery Ultrasound” value ([2]; IV, 30 to 60 mg doses) of the same compound?
The value was “does not cause any improvement”.

What about the “effect on vessels seen on TCD / ultrasound (vasoconstriction or dilatation)” value [2] of the same compound?
Its value is “resulted in vascular dilatation”.

What about the headache [2] of the same compound?
The headache was “alleviated or treated the headache”.

What about the “neurological exam and other neurological abnormalities” value [2] of the same compound?
The value was “clinical and neurological exam improvement”.

What about the vasodilation ([2]; intramuscularly (I.M.) or oral form after oral or I.M. loading) of the same compound?
Its vasodilation is “gives the expected vasodilation”.

With CC(C)NCC(O)COc1ccc(CC(N)=O)cc1 (centres unmarked) [Tenormin, Atenolol] as the compound, how does the “effectiveness in treating the vasospasm” value [2] read?
Its value is “None of these have been significantly effective at vasodilation”.

With CC(CCc1ccccc1)NCC(O)c1ccc(O)c(C(N)=O)c1 (centres unmarked) [Normodyne, Labetolol] as the compound, how does the “effectiveness in treating the vasospasm” value [2] read?
Its value is “None of these have been significantly effective at vasodilation”.

Which results are given for NNc1nncc2ccccc12 [Hydralazine]?
blood pressure changes [1]: tends to cause significant blood pressure changes; transient supersensitivity (transient worsening of the vasospasm) on early administration [1]: did not occur

Source: patent US20020188202A1, “Method of diagnosis and treatment and related compositions and apparatus” (priority 1996, published 2002)
